Drawing on patent publication US8268818B2, “Inhibitors of C-MET and uses thereof” (Vertex Pharmaceuticals Incorporated, priority 2006, dated 2012), this text covers Ki for 10 molecules.

Structures are written as SMILES.

T1 sequence (P48736 whole entry, species assumed): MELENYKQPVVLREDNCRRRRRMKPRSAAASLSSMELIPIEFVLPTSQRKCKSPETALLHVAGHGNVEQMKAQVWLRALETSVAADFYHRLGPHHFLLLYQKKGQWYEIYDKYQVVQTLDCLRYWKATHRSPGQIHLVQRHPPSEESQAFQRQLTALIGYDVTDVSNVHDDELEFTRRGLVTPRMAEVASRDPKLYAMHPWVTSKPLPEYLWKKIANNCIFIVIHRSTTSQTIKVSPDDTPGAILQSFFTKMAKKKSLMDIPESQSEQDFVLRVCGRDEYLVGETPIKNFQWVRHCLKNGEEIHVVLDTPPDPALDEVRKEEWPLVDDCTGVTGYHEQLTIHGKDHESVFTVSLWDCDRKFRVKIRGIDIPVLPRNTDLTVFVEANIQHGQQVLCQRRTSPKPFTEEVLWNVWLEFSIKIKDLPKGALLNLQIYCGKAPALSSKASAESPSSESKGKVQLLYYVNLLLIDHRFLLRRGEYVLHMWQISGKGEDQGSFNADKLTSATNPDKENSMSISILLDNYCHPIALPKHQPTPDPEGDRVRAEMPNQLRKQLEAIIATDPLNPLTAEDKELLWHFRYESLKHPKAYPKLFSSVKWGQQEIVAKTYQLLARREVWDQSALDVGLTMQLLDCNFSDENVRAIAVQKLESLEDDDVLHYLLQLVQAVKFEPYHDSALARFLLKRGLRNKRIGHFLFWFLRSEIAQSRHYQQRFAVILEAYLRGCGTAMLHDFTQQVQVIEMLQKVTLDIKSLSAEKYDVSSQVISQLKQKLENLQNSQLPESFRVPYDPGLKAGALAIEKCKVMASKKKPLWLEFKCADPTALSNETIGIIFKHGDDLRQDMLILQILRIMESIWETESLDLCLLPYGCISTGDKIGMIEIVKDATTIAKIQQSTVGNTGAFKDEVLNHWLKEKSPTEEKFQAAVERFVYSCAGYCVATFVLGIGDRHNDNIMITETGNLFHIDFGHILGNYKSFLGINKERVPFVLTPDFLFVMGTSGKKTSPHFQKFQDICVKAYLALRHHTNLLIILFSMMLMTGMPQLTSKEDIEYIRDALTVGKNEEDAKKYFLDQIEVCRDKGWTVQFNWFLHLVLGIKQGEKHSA

In one experiment the target is T1, PI3Kγ (Homo sapiens, UniProt P48736). Kind of experiment: PI3K inhibition assay, Protocol B (33P-ATP, glass fiber filter plate). Particulars: Protocol B; 100 μM ATP, 46 μM PI(4,5)P2 diC16, 16.6 nM PI3Kγ; average if more than one result; read-out: PI3Kγ enzyme inhibition Ki. The experiment is classed as biochemical. As for the experimental part:
Compounds were screened for their ability to inhibit PI3Kγ using one of the assays below.
To each well of a 96 well polystyrene plate [Corning Costar Item No. 3795], 61 μL of Reaction Mix [55 mM HEPES pH 7.5, 11 mM MgCl2, 27 mM NaCl, 5.5 mM DTT, 0.11 mg/mL BSA, 51 μM phosphatidylinositol(4,5)bisphosphate diC16 (PI(4,5)P2; Avanti Polar Lipids, Cat. No. 840046P) and 18 nM PI3Kγ] was added. Separately, ten 2.5-fold serial dilutions of compounds of the invention were prepared in 100% DMSO with the last two wells reserved for no inhibitor controls (enzyme+no compound and no enzyme control+no compound). 1 μL it of compound or DMSO alone was added by 12-channel hand pipet and incubated for 10 minutes at room temperature (25° C.). To initiate the reaction, 5 μl of ATP Mix [49 mM HEPES pH 7.5 and 1340 ^33P-ATP was added and allowed to incubate for 30 min. at 25° C. Final concentrations of the reaction were 50 mM HEPES 7.5, 10 mM MgCl2, 25 mM NaCl, 5 mM DTT, 0.1 mg/mL BSA, 46 μM PI(4,5)P2, 16.6 nM PI3Kγ, and 100 μM ATP. Final inhibitor concentrations ranged from 10 μM to 1 nM.
After incubation, 60 μL of the reaction was quenched by transferring to 504 of 20% TCA/Water in each well of a 96 well glass fiber filter plate [Millipore Cat. No. MAFBN0B50]. The plate was dried by vacuum and then washed five times in a Bio-Tek Instruments ELX-405 Auto Plate Washer with 150 μL of 5% TCA/Water. 50 μL of scintillation fluid was added to each well and the plate was read immediately on a Perkin-Elmer TopCount™ NXT liquid scintillation counter.
Inhibition data was background subtracted (no enzyme control+no inhibitor control) and fit to the competitive tight binding Ki equation described by Morrison and Stone. [J. F. Morrison and S. R. Stone, Comments Mol. Cell. Biophys. 2 (1985) 347-368].
Take `CC[C@@H](NS(=O)(=O)c1ccc(-c2sc(NC(C)=O)nc2C)o1)c1ccccc1` [Compound 66]: the Ki (as a rule, the equilibrium dissociation constant of an inhibitor or competing ligand from its target) is less than 100 nM.

As for `CC(=O)Nc1nc(C)c(-c2ccc(S(=O)(=O)NCc3ccccc3C)o2)s1` [Compound 67], the Ki is less than 100 nM.

For the molecule `CC(=O)Nc1nc(C)c(-c2ccc(S(=O)(=O)NCC(F)(F)F)o2)s1` [Compound 68], the Ki is less than 100 nM.

For `CC(=O)Nc1nc(C)c(-c2ccc(S(=O)(=O)Nc3ccccc3F)o2)s1` [Compound 69], the Ki is less than 100 nM.

On to `CC(=O)Nc1nc(C)c(-c2ccc(S(=O)(=O)Nc3c(F)cccc3F)o2)s1` [Compound 70], for which the Ki is 100 to 1000 nM.

On to `COC(=O)c1nc(NC(C)=O)sc1-c1ccc(S(=O)(=O)N(C)Cc2ccccc2)o1` [Compound 71], for which the Ki was 1000 to 5000 nM.

Take `COC(=O)c1nc(NC(C)=O)sc1-c1ccc(S(=O)(=O)NCc2ccccc2)o1` [Compound 72]: the Ki was in the range of 100 to 1000 nM.

On to `CC(=O)Nc1nc(C)c(-c2ccc(S(=O)(=O)N[C@@H]3c4ccccc4C[C@@H]3O)o2)s1` [Compound 73], for which the Ki is less than 100 nM.

For the molecule `CC(=O)Nc1nc(C)c(-c2ccc(S(=O)(=O)N[C@H]3c4ccccc4C[C@H]3O)o2)s1` [Compound 74], the Ki was less than 100 nM.

For the next experiment, the target named is T1, PI3Kγ. Kind of experiment: PI3K inhibition assay, Protocol A (33P incorporation, hydrophobic membrane filter plate). In kind it is biochemical. To be noted: 40 μM ATP, 65 μM PI(4,5)P2 diC8, 75 nM PI3Kγ, average if more than one result, read-out: PI3Kγ enzyme inhibition Ki. As to the method: Compounds were screened for their ability to inhibit PI3Kγ using one of the assays below. To each well of a 96 well polystyrene plate [Corning, Costar Item No. 3696], was added 1.5 μl of a compound of the invention (at various concentrations) along with 28.5 W of kinase buffer [50 mM HEPES (pH 7.4), 5 mM DTT, 5 mM MgCl2 and 50 mM NaCl] containing 137 μM phosphatidylinositol(4,5) bisphosphate diC8 [PI(4,5)P2; Echelon Biosciences, Cat. No. P-4508] and 158 nM PI3Ky. After mixing, 30 μl of kinase buffer containing 80 μM ATP was added to start the reaction. Final substrate concentrations in the assay were 50 mM HEPES (pH 7.4), 5 mM DTT, 5 mM MgCl2, 50 mM NaCl, 40 μM ATP (200 μCi/μmole ATP), 65 μM PI(4,5)P2 and 75 nM PI3Kγ. After 20 minutes at room temperature (25° C.), the reaction was stopped with 30 μl of kinase buffer containing 150 mM EDTA and 1.5 M ammonium sulfate. Each well of a 96 well hydrophobic membrane filter plate [Millipore, 0.45 μm hydrophobic membrane, Cat. No. […]] was washed with 100 μL wash buffer [50 mM HEPES (pH 7.4), 5 mM DTT, 5 mM MgCl2, 50 mM NaCl, 5 mM EDTA and 0.5 M ammonium sulfate]. 60 μL of the stopped assay was transferred to each well of the filter plate and soaked for 30 minutes. […] The filter plate was allowed to stand overnight prior to determining ^33P incorporation on a Perkin-Elmer Microbeta TriluxTM liquid scintillation counter and luminescence counter. […]
As for `CCOC(=O)c1ccc(-c2sc(NC(=O)C3CC3)nc2C)o1` [Compound 1, Ethyl 5-(2-(cyclopropanecarboxamido)-4-methylthiazol-5-yl)furan-2-carboxylate], the Ki fell in the range of 1000 to 5000 nM.
